Assay results reported in paper PMC6958387, “Biological Evaluation of Arylsemicarbazone Derivatives as Potential Anticancer Agents” (Pharmaceuticals, 2019).

How the values were obtained:
[1] = system: Peripheral Blood Mononuclear Cells (PBMCs); experiment: MTT cytotoxicity in normal cells, 72 h; format: cell-based, human; details: 72 h of incubation
Description: In order to evaluate the cytotoxic potential in normal cells, all the derivatives were tested against Peripheral Blood Mononuclear Cells (PBMCs) and the most promising compounds were again compounds 3c and 4a, which offered more selectivity against the cancer cells.
Mononuclear cells were obtained from the peripheral blood of healthy volunteers by heparin tube collection and isolated by Ficoll-Histopaque gradient centrifugation. After centrifugation, the cells were harvested, washed and resuspended in RPMI 1640 medium supplemented with 20% fetal bovine serum, 2 mM glutamine, 100 U/mL penicillin and 100 μg/mL streptomycin (Gibco™ Life Technologies, Waltham, MA, USA). The phytohemagglutinin mitogen 2% was also added into the culture medium. After that, using the neubauer chamber, the cells were counted and plated in a 96-well plate at a concentration of 10^6 cells/mL and then were maintained for overnight under incubation at 37 °C and 5% CO2 [65].
(§1) The evaluation of the cytotoxicity of the compounds was performed by the method of 3-(4,5-dimethyl-2-thiazolyl)-2,5-diphenyl-2H-tetrazolium bromide (MTT) (Sigma Aldrich Co., St. Louis, MO, USA). To perform the assay the cells were seeded in 96-well plates at the following concentrations: HL-60 and K562 (0.3 × 10^6 cells/mL); MOLT-4 and PBMC (10^6 cells/mL); NCI-H292, HT-29, HEp-2 e MCF-7 (10^5 cells/mL). Briefly, the compounds previously dissolved in DMSO (dimethylsulfoxide, Vetec, São Paulo, Brazil), were diluted in medium and added to each well at the desired concentrations. For the calculation of the concentration that inhibits 50% of cell growth (IC50) the compounds were serially diluted to obtain the final concentrations between 0.19–25 μg/mL. Doxorubicin was used as the standard in the concentration range between (0.078–10 μg/mL). After 72 h of contact of the cells with the compounds, it was added to each well 25 μL of MTT solution (5 mg/mL). Plates were left for another 3 h in incubator at 37 °C and at the end of that period the supernatant was aspirated. To perform the reading, 100 μL of DMSO was added in each well for the dissolution of the formazan crystals. The amount of formazan was measured by reading the plate at 560 nm absorbance. The IC50 was calculated from the nonlinear regression in the Prisma 7.0 software (GraphPad, San Diego, CA, USA). Each sample was tested in triplicate in three independent experiments.

HT-29 = experiment: MTT cytotoxicity, 72 h; format: cell-based, human
Description: (§2) The cytotoxicity assessment was performed against three human cancer cell lines in suspension (K562, HL-60 and MOLT-4) and four adhered (HEp-2, NCI-H292, HT-29 and MCF-7).
(§3) The cells were obtained from the Cell Bank of Rio de Janeiro and maintained in the Laboratory of Cell Culture of the Department of Antibiotics of the Federal University of Pernambuco. The lines K562 (myeloblastic leukaemia), HL-60 (promyelocytic leukemia) and MOLT-4 (lymphoblastic leukemia) were cultured in RPMI 1640 medium and the lines HEp-2 (larynx carcinoma), NCI-H292 (lung carcinoma), HT-29 (colon adenocarcinoma) and MCF-7 (breast adenocarcinoma) were cultured in DMEM medium, supplemented with 10% fetal bovine serum, 2 mM glutamine, 100 U/mL penicillin and 100 μg/mL streptomycin (Gibco™ Life Technologies), at 37 °C and 5% CO2.
as §1

NCI-H292 = experiment: MTT cytotoxicity, 72 h; format: cell-based, human
Description: as §2, §3, §1

HEp-2 = experiment: MTT cytotoxicity, 72 h; format: cell-based, human
Description: as §2, §3, §1

MCF-7 = experiment: MTT cytotoxicity, 72 h; format: cell-based, human
Description: as §2, §3, §1

MOLT-4 = experiment: MTT cytotoxicity, 72 h; format: cell-based, human
Description: as §2, §3, §1

K562 = experiment: MTT cytotoxicity, 72 h; format: cell-based, human
Description: as §2, §3, §1

HL-60 = experiment: MTT cytotoxicity, 72 h; format: cell-based, human; details: MTT, 72 h of incubation
Description: as §2, §3, §1

CDK2/CyclinA = CDK2/CyclinA (Homo sapiens, UniProt P24941); experiment: Kinase inhibition assay (ADP-Glo); format: biochemical; details: 10 µM ATP
Description: HsCDK2/CyclinA (human, cyclin-dependent kinase-2, kindly provided by Dr. A. Echalier-Glazer, Leicester, UK) was assayed in buffer A with 0.8 µg/µL of histone H1 as substrate.

DYRK1A = target: T1, DYRK1A (Rattus norvegicus, UniProt Q63470); experiment: Kinase inhibition assay (ADP-Glo); format: biochemical; details: 10 µM ATP
T1 construct: amino acids 1 to 499 including the kinase domain; made in house; host or cells: bacteria
Description: RnDYRK1A (Rattus norvegicus, amino acids 1 to 499 including the kinase domain, recombinant, expressed in bacteria, DNA vector kindly provided by Dr. W. Becker, Aachen, Germany) was assayed in buffer A with 0.033 μg/µL of the following peptide: KKISGRLSPIMTEQ as substrate.

CDK9/CyclinT = CDK9/CyclinT (Homo sapiens, UniProt P50750); experiment: Kinase inhibition assay (ADP-Glo)
Chain of CDK9/CyclinT (P50750 whole entry): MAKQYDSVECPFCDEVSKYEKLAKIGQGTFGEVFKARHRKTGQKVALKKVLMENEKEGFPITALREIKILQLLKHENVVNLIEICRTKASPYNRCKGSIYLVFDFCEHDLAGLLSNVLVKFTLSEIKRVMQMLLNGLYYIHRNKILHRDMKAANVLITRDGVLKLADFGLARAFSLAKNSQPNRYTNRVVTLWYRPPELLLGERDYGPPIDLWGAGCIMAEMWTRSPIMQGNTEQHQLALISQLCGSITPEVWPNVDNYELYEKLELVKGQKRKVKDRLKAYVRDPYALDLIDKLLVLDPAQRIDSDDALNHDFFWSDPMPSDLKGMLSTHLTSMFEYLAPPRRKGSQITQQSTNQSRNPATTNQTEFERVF
Chain of CDK9/CyclinT (O60563 whole entry partner): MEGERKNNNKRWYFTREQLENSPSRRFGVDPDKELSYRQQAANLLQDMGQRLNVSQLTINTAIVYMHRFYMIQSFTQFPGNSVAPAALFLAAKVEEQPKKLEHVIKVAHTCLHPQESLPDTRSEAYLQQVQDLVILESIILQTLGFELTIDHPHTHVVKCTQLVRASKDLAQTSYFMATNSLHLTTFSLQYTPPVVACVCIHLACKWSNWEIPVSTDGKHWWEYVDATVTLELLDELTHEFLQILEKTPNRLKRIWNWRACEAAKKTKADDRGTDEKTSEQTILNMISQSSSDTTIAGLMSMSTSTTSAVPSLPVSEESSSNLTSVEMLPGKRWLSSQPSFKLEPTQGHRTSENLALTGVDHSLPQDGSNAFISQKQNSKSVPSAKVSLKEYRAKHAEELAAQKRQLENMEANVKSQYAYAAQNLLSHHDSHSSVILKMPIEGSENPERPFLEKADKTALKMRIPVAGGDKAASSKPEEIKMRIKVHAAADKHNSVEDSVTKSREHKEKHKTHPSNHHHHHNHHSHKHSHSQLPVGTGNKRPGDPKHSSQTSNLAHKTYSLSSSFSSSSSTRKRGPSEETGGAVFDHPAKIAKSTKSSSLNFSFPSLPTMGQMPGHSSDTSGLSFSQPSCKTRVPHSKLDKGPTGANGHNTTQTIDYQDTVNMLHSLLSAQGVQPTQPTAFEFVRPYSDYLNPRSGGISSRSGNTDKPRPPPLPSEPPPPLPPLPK

CLK1 = target: T2, CLK1 (Mus musculus, UniProt P22518); experiment: Kinase inhibition assay (ADP-Glo); format: biochemical; details: 10 µM ATP
T2 construct: made in house; host or cells: bacteria
T2 sequence (P22518 whole entry): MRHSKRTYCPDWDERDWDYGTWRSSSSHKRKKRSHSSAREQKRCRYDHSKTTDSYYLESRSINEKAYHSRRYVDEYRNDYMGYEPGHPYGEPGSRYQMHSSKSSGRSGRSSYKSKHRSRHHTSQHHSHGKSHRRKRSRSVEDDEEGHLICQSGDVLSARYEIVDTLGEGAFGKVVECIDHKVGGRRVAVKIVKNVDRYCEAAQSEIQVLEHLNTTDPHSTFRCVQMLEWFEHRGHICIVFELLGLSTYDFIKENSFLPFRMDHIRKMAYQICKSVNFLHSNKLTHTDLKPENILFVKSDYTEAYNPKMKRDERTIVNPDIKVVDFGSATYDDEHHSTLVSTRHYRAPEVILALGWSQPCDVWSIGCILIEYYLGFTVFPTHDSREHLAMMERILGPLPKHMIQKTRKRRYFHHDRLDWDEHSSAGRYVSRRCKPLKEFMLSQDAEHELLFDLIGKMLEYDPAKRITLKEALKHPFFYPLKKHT
Description: MmCLK1 (from Mus musculus, recombinant, expressed in bacteria) was assayed in buffer A with 0.027μg/µL of the following peptide: GRSRSRSRSRSR as substrate.

CDK5/p25 = target: T3, CDK5/p25 (Homo sapiens, UniProt Q00535); experiment: Kinase inhibition assay (ADP-Glo); format: biochemical; details: 10 µM ATP
T3 construct: made in house; host or cells: bacteria
T3 sequence (Q00535 whole entry): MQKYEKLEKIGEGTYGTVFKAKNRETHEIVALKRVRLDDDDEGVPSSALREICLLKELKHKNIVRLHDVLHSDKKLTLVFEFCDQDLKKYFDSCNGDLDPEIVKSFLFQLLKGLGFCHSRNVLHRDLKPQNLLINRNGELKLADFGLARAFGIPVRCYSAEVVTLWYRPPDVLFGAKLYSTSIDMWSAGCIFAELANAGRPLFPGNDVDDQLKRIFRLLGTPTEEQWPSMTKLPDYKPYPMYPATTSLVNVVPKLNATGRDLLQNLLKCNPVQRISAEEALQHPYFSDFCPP
T3 sequence (Q15078 99-307 partner limits assumed): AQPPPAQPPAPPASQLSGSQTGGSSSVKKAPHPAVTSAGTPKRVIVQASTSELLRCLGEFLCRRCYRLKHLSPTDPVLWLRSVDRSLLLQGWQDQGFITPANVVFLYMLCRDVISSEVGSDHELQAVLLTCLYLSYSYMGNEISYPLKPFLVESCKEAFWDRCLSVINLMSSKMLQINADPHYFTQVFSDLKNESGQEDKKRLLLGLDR
Description: HsCDK5/p25 (human, recombinant, expressed in bacteria) was assayed in buffer A, with 0.8 µg/µL of histone H1 as substrate.

AURKB = target: T4, AURKB (Homo sapiens, UniProt Q96GD4); experiment: Kinase inhibition assay (ADP-Glo); format: biochemical; details: 10 µM ATP
T4 construct: purchased SignalChem A31-10G; host or cells: Sf9 insect cells (baculovirus)
T4 sequence (Q96GD4 whole entry): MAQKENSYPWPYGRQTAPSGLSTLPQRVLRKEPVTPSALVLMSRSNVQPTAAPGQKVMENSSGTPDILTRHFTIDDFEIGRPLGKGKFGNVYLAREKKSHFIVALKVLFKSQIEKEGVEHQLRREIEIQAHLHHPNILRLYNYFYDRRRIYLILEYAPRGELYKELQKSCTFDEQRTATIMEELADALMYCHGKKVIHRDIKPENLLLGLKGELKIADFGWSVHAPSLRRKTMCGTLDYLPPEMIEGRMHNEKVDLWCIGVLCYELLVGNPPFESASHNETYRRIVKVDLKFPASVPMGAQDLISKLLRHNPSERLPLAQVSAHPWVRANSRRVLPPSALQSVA

CK1δ/ε = experiment: Kinase inhibition assay (ADP-Glo); format: biochemical, Sus scrofa domesticus; details: 10 µM ATP
Description: SscCK1δ/ε (Sus scrofa domesticus, casein kinase 1δ/ε, affinity purified from porcine brain) was assayed in buffer A, with 0.022 μg/μL of the following peptide: RRKHAAIGSpAYSITA (“Sp” stands for phosphorylated serine) as CK1-specific substrate.

GSK3 α/β = experiment: Kinase inhibition assay (ADP-Glo); format: biochemical, Sus scrofa domesticus; details: 10 µM ATP
Description: SscGSK-3α/β (Sus scrofa domesticus, glycogen synthase kinase-3, affinity purified from porcine brain) was assayed in buffer A with 0.010 µg/µL of GS-1 peptide, a GSK-3-selective substrate ([…]pEDEEE, “Sp” stands for phosphorylated serine).

HASPIN = target: T5, HASPIN (Homo sapiens, UniProt Q8TF76); experiment: Kinase inhibition assay (ADP-Glo); format: biochemical; details: 10 µM ATP
T5 construct: kinase domain, amino acids 470 to 798; made in house; host or cells: bacteria
T5 sequence (Q8TF76 470-798): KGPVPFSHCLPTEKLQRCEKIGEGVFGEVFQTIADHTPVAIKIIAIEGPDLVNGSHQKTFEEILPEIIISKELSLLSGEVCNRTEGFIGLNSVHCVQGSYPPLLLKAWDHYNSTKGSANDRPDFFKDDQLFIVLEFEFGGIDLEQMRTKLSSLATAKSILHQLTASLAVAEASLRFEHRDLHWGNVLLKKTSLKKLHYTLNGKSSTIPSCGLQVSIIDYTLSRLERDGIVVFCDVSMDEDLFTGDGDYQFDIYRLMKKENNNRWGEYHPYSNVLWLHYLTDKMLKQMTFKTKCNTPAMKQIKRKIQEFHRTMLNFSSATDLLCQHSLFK
Description: HsHASPIN (human, kinase domain, amino acids 470 to 798, recombinant, expressed in bacteria) was assayed in buffer A with 0.007 µg/µL of Histone H3 (1-21) peptide ([…]) as substrate;

PIM1 = target: T6, PIM1 (Homo sapiens, UniProt P11309); experiment: Kinase inhibition assay (ADP-Glo); format: biochemical; details: 10 µM ATP
T6 construct: made in house; host or cells: bacteria
T6 sequence (P11309 whole entry): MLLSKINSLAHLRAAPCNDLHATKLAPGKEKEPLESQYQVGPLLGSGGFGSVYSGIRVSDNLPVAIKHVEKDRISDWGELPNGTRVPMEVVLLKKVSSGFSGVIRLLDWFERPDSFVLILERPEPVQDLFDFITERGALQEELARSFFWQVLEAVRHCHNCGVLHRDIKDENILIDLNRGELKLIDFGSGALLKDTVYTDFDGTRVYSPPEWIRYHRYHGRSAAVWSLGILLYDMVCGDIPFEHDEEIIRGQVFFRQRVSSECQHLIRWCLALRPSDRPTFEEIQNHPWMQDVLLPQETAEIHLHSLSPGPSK
Description: HsPIM1 (human proto-oncogene, recombinant, expressed in bacteria) was assayed in buffer B with 0.8 µg/µL of histone H1 (Sigma #H5505) as substrate.

[2] = Homo sapiens, HT-29, 72 h of incubation
[3] = Homo sapiens, NCI-H292, 72 h of incubation
[4] = Homo sapiens, HEp-2, 72 h of incubation
[5] = Homo sapiens, MCF7, 72 h of incubation
[6] = Homo sapiens, MOLT-4, 72 h of incubation
[7] = Homo sapiens, K562, 72 h of incubation

| melting point [°C] | IC50 (CDK2/CyclinA) [µM] | IC50 (DYRK1A) [µM] | IC50 (CDK9/CyclinT) [µM] | IC50 (CLK1) [µM] | IC50 (CDK5/p25) [µM] | IC50 (AURKB) [µM] | IC50 (CK1δ/ε) [µM] | IC50 (GSK3 α/β) [µM] | IC50 (HASPIN) [µM] | IC50 (PIM1) [µM] | Compound | IC50 ([1]; Homo sapiens, PBMC) [µM] | IC50 (HT-29; [2]) [µM] | IC50 (NCI-H292; [3]) [µM] | IC50 (HEp-2; [4]) [µM] | IC50 (MCF-7; [5]) [µM] | IC50 (MOLT-4; [6]) [µM] | IC50 (K562; [7]) [µM] | IC50 (HL-60; Homo sapiens, HL-60) [µM] | other results |
| --- | --- | --- | --- | --- | --- | --- | --- | --- | --- | --- | --- | --- | --- | --- | --- | --- | --- | --- | --- | --- |
| 210 to 212 | – | – | – | – | – | – | – | – | – | – | COc1ccc(C=NNC(N)=O)cc1 [Compound 3a, 4-Methoxybenzaldehyde Semicarbazone] | > 100 | > 100 | > 100 | > 100 | > 100 | > 100 | > 100 | > 100 | – |
| 237 to 239 | – | – | – | – | – | – | – | – | – | – | COc1cc(C=NNC(N)=O)ccc1O [Compound 3b, 4-Hydroxy-3-methoxybenzaldehyde Semicarbazone] | > 100 | > 100 | > 100 | > 100 | > 100 | > 100 | > 100 | > 100 | – |
| 237 to 239 | > 10 | > 10 | > 10 | > 10 | > 10 | > 10 | > 10 | > 10 | > 10 | > 10 | NC(=O)NN=Cc1ccc(Br)cc1 [Compound 3d, 4-Bromobenzaldehyde Semicarbazone] | 46.3 ± 0.97 | > 100 | > 100 | 23.1 ± 0.8 | 33.5 ± 0.75 | 37.2 ± 0.84 | 25.2 ± 2.43 | 16.9 ± 1.1 | – |

The remaining lines, values behind:

| Compound | melting point [°C] | IC50 (CDK2/CyclinA) [µM] | IC50 (DYRK1A) [µM] | IC50 (CDK9/CyclinT) [µM] | IC50 (CLK1) [µM] | IC50 (CDK5/p25) [µM] | IC50 (AURKB) [µM] | IC50 (CK1δ/ε) [µM] | IC50 (GSK3 α/β) [µM] | IC50 (HASPIN) [µM] | IC50 (PIM1) [µM] | IC50 ([1]; Homo sapiens, PBMC) [µM] | IC50 (HT-29; [2]) [µM] | IC50 (NCI-H292; [3]) [µM] | IC50 (HEp-2; [4]) [µM] | IC50 (MCF-7; [5]) [µM] | IC50 (MOLT-4; [6]) [µM] | IC50 (K562; [7]) [µM] | IC50 (HL-60; Homo sapiens, HL-60) [µM] | other results |
| --- | --- | --- | --- | --- | --- | --- | --- | --- | --- | --- | --- | --- | --- | --- | --- | --- | --- | --- | --- | --- |
| 2,6-Pyridinedicarboxaldehyde Semicarbazone [Compound 3j] | – | – | – | – | – | – | – | – | – | – | – | – | – | – | – | – | – | – | – | IC50 [1]: > 100 µM; IC50 (HT-29; 72 h of incubation): > 100 µM; IC50 (NCI-H292; 72 h of incubation): > 100 µM; IC50 (HEp-2; 72 h of incubation): > 100 µM; IC50 (MCF-7; 72 h of incubation): > 100 µM; IC50 (MOLT-4; 72 h of incubation): > 100 µM; IC50 (K562; 72 h of incubation): > 100 µM; IC50 (HL-60): > 100 µM |
| NC(=O)NN=Cc1ccc(Cl)cc1 [Compound 3e, 4-Chlorobenzaldehyde Semicarbazone] | 235 to 236 | > 10 | > 10 | > 10 | > 10 | > 10 | > 10 | > 10 | > 10 | > 10 | > 10 | > 100 | > 100 | > 100 | 22.3 ± 0.4 | 33.9 ± 0.8 | > 100 | 58.7 ± 0.97 | > 100 | – |
